Experiments:
Type in all cases: in vivo
[1] = test system: Polygonum convolvulus (POLCO); test: C. Herbicidal pre-emergence efficacy, POLCO; settings: scored after about 3 weeks
How it was run: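 Pre-emergence test: formulated compounds sprayed as aqueous suspension or emulsion with 0.5% additive at 600 l/ha onto soil covering sown seeds, at rates corresponding to 320 g/ha or less. After about 3 weeks in greenhouse, efficacy scored visually as percent versus untreated controls (100% = plants dead).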

Lolium rigidum (LOLRI) = test: A. Herbicidal pre-emergence efficacy, LOLRI
How it was run: (§1)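 Pre-emergence soil-surface spray in sandy loam pots, WP/EC in water plus 0.5% additive, 600 L/ha. Visual % damage rating after about 3 weeks in greenhouse vs. untreated; 0% = control-like, 100% = dead plants. Rates up to 1280 g/ha.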

Viola tricolor (VIOTR) = test: E. Herbicidal post-emergence efficacy, VIOTR
How it was run: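 Greenhouse post-emergence spray, one-leaf stage (2–3 wk after sowing, sandy loam); WP/EC formulation, aqueous + 0.5% additive, 600 l/ha water; rates 320 g/ha or less. Visual rating ~3 wk later vs untreated; 0% = control-like, 100% = dead.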

Veronica persica (VERPE) = test: A. Herbicidal pre-emergence efficacy, VERPE; settings: for Pre-emergence efficacy against VERPE: dosage 80 g/ha
How it was run: as §1

Kochia scoparia (KCHSC) [2] = test: B. Herbicidal post-emergence efficacy, KCHSC; settings: for Post-emergence efficacy against KCHSC: 1280 g/ha; for Post-emergence efficacy against KCHSC in %: rated visually after about 3 weeks
How it was run: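 Weeds grown in sandy loam in greenhouse pots, sprayed at one-leaf stage (2–3 weeks after sowing) with WP or EC formulations as aqueous suspension/emulsion plus 0.5% additive at 600 L/ha water, rates up to 1280 g/ha. Visual efficacy rated about 3 weeks later versus untreated controls (0% = like control, 100% = dead).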

Kochia scoparia (KCHSC) [3] = test: A. Herbicidal pre-emergence efficacy, KCHSC
How it was run: as §1

[4] = test system: Echinochloa crus-galli (ECHCG); test: A. Herbicidal pre-emergence efficacy, ECHCG; settings: scored visually after about 3 weeks vs untreated controls
How it was run: as §1

[5] = 80 g/ha, scored visually after about 3 weeks vs untreated controls
[6] = pre-emergence, dosage 1280 g/ha

Compound | Pre-emergence efficacy against POLCO ([1]; 80 g/ha) [%] | Pre-emergence efficacy against POLCO ([1]; 320 g/ha) [%] | Pre-emergence efficacy against LOLRI (Lolium rigidum (LOLRI); dosage 320 g/ha) [%] | Pre-emergence efficacy against LOLRI (Lolium rigidum (LOLRI); dosage 1280 g/ha) [%] | Post-emergence efficacy against VIOTR in % (Viola tricolor (VIOTR); application rate 80 g/ha) [%] | Post-emergence efficacy against VIOTR in % (Viola tricolor (VIOTR); application rate 320 g/ha) [%] | Pre-emergence efficacy against VERPE in % (Veronica persica (VERPE); 320 g/ha) [%] | Pre-emergence efficacy against VERPE in % (Veronica persica (VERPE); 1280 g/ha) [%] | Pre-emergence efficacy against VERPE (Veronica persica (VERPE)) [%] | Post-emergence efficacy against KCHSC (Kochia scoparia (KCHSC) [2]) [%] | Pre-emergence efficacy against KCHSC (Kochia scoparia (KCHSC) [3]; [5]) [%] | Pre-emergence efficacy against KCHSC (Kochia scoparia (KCHSC) [3]; pre-emergence, dosage 320 g/ha) [%] | Pre-emergence efficacy against KCHSC (Kochia scoparia (KCHSC) [3]; [6]) [%] | Pre-emergence efficacy against ECHCG ([4]; 320 g/ha) [%] | Pre-emergence efficacy against ECHCG ([4]; 1280 g/ha) [%] | Post-emergence efficacy against KCHSC in % (Kochia scoparia (KCHSC) [2]; 80 g/ha) [%] | Post-emergence efficacy against KCHSC in % (Kochia scoparia (KCHSC) [2]; 320 g/ha) [%] | Pre-emergence efficacy against ECHCG ([4]; 80 g/ha) [%]
C=CCCS(=O)(=O)Oc1c(F)cccc1Oc1ncc(Cl)cn1 [Example I-50] | 80 | 90 | 90 | 90 | 90 | 100 | 100 | 100 | 90 | 90 | 90 | 100 | 100 | 90 | 100 |  |  | 
O=S(=O)(CC1CC(F)(F)C1)Oc1c(F)cccc1Oc1ncc(Cl)cn1 [Example I-53] | 100 | 100 | 90 | 100 | 100 | 100 | 100 | 100 | 100 | 90 | 100 | 100 | 100 | 100 | 100 | 90 | 90 | 100
O=S(=O)(CCC1CC1)Oc1c(F)cccc1Oc1ncc(Cl)cn1 [Example I-55] | 90 | 90 |  | 100 |  | 80 | 100 | 100 |  | 90 |  | 100 | 100 | 100 | 100 |  | 90 | 
O=S(=O)(CCCC(F)F)Oc1c(F)cccc1Oc1ncc(Cl)cn1 [Example I-56] | 100 | 100 | 100 | 100 | 100 | 100 | 100 | 100 |  | 90 | 100 | 100 | 100 | 100 | 100 | 90 | 90 | 100
O=S(=O)(CCCC(F)(F)C(F)(F)F)Oc1c(F)cccc1Oc1ncc(Cl)cn1 [Example I-68] | 90 | 90 |  | 100 | 100 | 100 | 100 | 100 |  | 100 | 90 | 100 | 100 | 90 | 100 | 100 | 100 | 
O=S(=O)(CCC(F)=C(F)F)Oc1c(Cl)cccc1Oc1ncc(Cl)cn1 [Example I-73] |  | 90 |  | 90 | 90 | 100 |  | 100 |  | 100 |  | 90 | 90 |  | 90 | 90 | 100 | 
Cc1cccc(Oc2ncc(Cl)cn2)c1OS(=O)(=O)CC1CC(F)(F)C1 [Example I-74] |  | 90 |  | 100 | 100 | 100 | 100 | 100 | 90 | 100 |  | 90 | 100 | 90 | 100 | 90 | 100 | 
